This passage reports MIC and ED50 results from patent US4497802A, “N-Acyl glycopeptide derivatives” (Eli Lilly and Company, priority 1983, dated 1985).

Test [1] has as its system Streptococcus Group D X66. The experiment in a line: MIC, standard agar-dilution assay. As to conditions: Streptococcus Group D X66; agar dilution. It counts as cell-based. A general note: In agar dilution the substance is mixed into plates at graded concentrations.
In test [2] the test system is Haemophilus influenzae 76. The experiment in a line: MIC, standard agar-dilution assay. It counts as cell-based. Conditions: Haemophilus influenzae 76, ampicillin-resistant strain.
For test [3], the system named is Haemophilus influenzae C.L. Put plainly: MIC, standard agar-dilution assay. As to conditions: ampicillin-sensitive strain. It counts as cell-based.
Test [4] deals with Staphylococcus aureus X1.1. Put plainly: MIC, standard agar-dilution assay. It counts as cell-based. Conditions: Staphylococcus aureus X1.1; agar dilution.
The subject of the next test is Staphylococcus aureus. The experiment in a line: ED50 in experimentally infected mice. It counts as in vivo. Conditions: mice infected with Staphylococcus aureus; administered subcutaneously 1 and 4 hours postinfection.
Test [5] relates to Staphylococcus aureus V41. Put plainly: MIC, standard agar-dilution assay. It counts as cell-based. Conditions: Staphylococcus aureus V41, penicillin-resistant strain; agar dilution.
Test [6] deals with Staphylococcus aureus X400. Put plainly: MIC, standard agar-dilution assay. It counts as cell-based. As to conditions: Staphylococcus aureus X400, methicillin-resistant strain.
Another test has as its system Streptococcus pyogenes. Put plainly: ED50 in experimentally infected mice. It counts as in vivo. Conditions: mice infected with Streptococcus pyogenes; administered subcutaneously 1 and 4 hours postinfection. As to the method: (§1) Some of the derivatives of this invention have shown in vivo antimicrobial activity against experimentally-induced infections in laboratory animals. When two doses of test compound were administered to experimentally infected mice, the activity observed was measured as an ED50 value [effective dose in mg/kg to protect 50% of the test animals: see Warren Wick, et al., J. Bacteriol. 81, 233-235 (1961)].
(§2) ^a mg/kg × 2; administered subcutaneously 1 and 4 hours

The subject of the next test is Streptococcus pneumoniae. The experiment in a line: ED50 in experimentally infected mice. It counts as in vivo. Conditions: mice infected with Streptococcus pneumoniae; administered subcutaneously 1 and 4 hours postinfection. As to the method:
as §1, §2

The test system of test [7] is Streptococcus pyogenes C203. Put plainly: MIC, standard agar-dilution assay. It counts as cell-based. As to conditions: Streptococcus pyogenes C203; agar dilution.
Test [8] deals with Staphylococcus epidermidis EPI1. It counts as cell-based. As to conditions: Staphylococcus epidermidis EPI1; agar dilution.
The test system of test [9] is Staphylococcus epidermidis EPI2. Put plainly: MIC, standard agar-dilution assay. It counts as cell-based.
The subject of the next test is Streptococcus Group 9960. The experiment in a line: MIC, standard agar-dilution assay. Conditions: Streptococcus Group 9960; agar dilution. It counts as cell-based.
Test [10] has as its system Staphylococcus aureus S13E. It counts as cell-based. Conditions: agar dilution.
Test [11] relates to Streptococcus pneumoniae Park I. It counts as cell-based. As to conditions: agar dilution.

A value given as a limit tells only on which side of the number the result lay.

Take N--(lauroyl)A41030A [Example 20]: the MIC in test [1] was 0.5 µg/mL; in [2], 32 µg/mL; in test [3], 32 µg/mL; in [4], 0.5 µg/mL; in test [5], 0.5 µg/mL; in test [6], 1 µg/mL. Further, the MIC amounted to 1 µg/mL in test [7]; 0.5 µg/mL in test [8]; 0.5 µg/mL in [9]; 0.5 µg/mL against Streptococcus Group 9960; 0.5 µg/mL in [10]; 1 µg/mL in test [11]. Besides, the ED50 in the test on Staphylococcus aureus was 0.6 mg/kg × 2; in the test on Streptococcus pyogenes, greater than 10 mg/kg × 2; in the test on Streptococcus pneumoniae it was greater than 10 mg/kg × 2.
Take “N--[p-(octyloxy)benzoyl]A41030A [Example 21]”: the MIC in test [1] was 2 µg/mL; in [2], “-- (Compound not active at less than 128 mcg/ml)”; in test [3] it was “-- (Compound not active at less than 128 mcg/ml)”; in test [4] it was 1 µg/mL; in test [5], 1 µg/mL; in [6], 2 µg/mL. For the same substance, the MIC in test [7] amounted to 2 µg/mL; in test [8], 0.5 µg/mL; in test [9] it was 1 µg/mL; with Streptococcus Group 9960, 1 µg/mL; in [10], 2 µg/mL; in [11], 2 µg/mL. Besides, the ED50 in the test on Staphylococcus aureus is listed as 2.19 mg/kg × 2; in the test on Streptococcus pyogenes it was greater than 10 mg/kg × 2; in the test with Streptococcus pneumoniae, greater than 10 mg/kg × 2.
With “N--(3,5-dichlorobenzoyl)A41030A [Example 22]”, the MIC in test [1] was 0.5 µg/mL; in [2], 8 µg/mL; in [3], 16 µg/mL; in test [4] it was 0.125 µg/mL; in [5], 0.125 µg/mL; in test [6] it was 0.25 µg/mL. The MIC in [7] is 0.5 µg/mL; in test [8] it was 0.125 µg/mL; in test [9] it was 0.25 µg/mL; in the test on Streptococcus Group 9960 it was 0.5 µg/mL; in [10], 0.25 µg/mL; in test [11] it was 0.5 µg/mL. The ED50 with Staphylococcus aureus is less than 0.31 mg/kg × 2; in the test on Streptococcus pyogenes, greater than 10 mg/kg × 2; with Streptococcus pneumoniae, 41 mg/kg × 2.
In the case of “N--[p-(octyloxy)benzoyl]A47934 [Example 26]”, the MIC was determined as 0.5 µg/mL in [1]; 4 µg/mL in [2]; 8 µg/mL in test [3]; 0.125 µg/mL in [4]; 0.25 µg/mL in test [5]; 0.5 µg/mL in test [6]. Also, the MIC in test [7] is 0.5 µg/mL; in test [8] it was 0.125 µg/mL; in test [9], 0.5 µg/mL; with Streptococcus Group 9960, 1 µg/mL; in test [10] it was 0.25 µg/mL; in test [11], 0.5 µg/mL. Moreover, the results for the ED50 with Staphylococcus aureus, in the test on Streptococcus pyogenes and in the test with Streptococcus pneumoniae were 3.6 mg/kg × 2, greater than 10 mg/kg × 2 and greater than 10 mg/kg × 2, respectively.
For the substance N--(L-phenylalanyl)A47934 [Example 24], the MIC in [1] worked out at 0.5 µg/mL; in test [2], 4 µg/mL; in test [3], 4 µg/mL; in test [4], 0.06 µg/mL; in test [5], 0.06 µg/mL; in test [6] it was 0.25 µg/mL. In addition, the MIC in [7] came out at 0.25 µg/mL; in [8], 0.125 µg/mL; in test [9] it was 0.25 µg/mL; in the test with Streptococcus Group 9960, 1 µg/mL; in test [10], 0.06 µg/mL; in test [11] it was 0.06 µg/mL. This substance also gave an ED50 in the test with Staphylococcus aureus of less than 0.31 mg/kg × 2.
For the substance N--(nonanoyl)A47934 [Example 25], the MIC came out at 0.25 µg/mL in [1]; 8 µg/mL in test [2]; 8 µg/mL in test [3]; 0.125 µg/mL in [4]; 0.125 µg/mL in test [5]; 0.25 µg/mL in [6]. Besides, the MIC is 0.5 µg/mL in test [7]; 0.06 µg/mL in test [8]; 0.125 µg/mL in test [9]; 0.25 µg/mL against Streptococcus Group 9960; 0.125 µg/mL in [10]; 0.25 µg/mL in [11]. The ED50 is recorded as less than 0.31 mg/kg × 2 in the test on Staphylococcus aureus, greater than 10 mg/kg × 2 in the test on Streptococcus pyogenes and greater than 10 mg/kg × 2 with Streptococcus pneumoniae.
Consider N--(nonanoyl)A41030A [Example 19], for which the MIC in test [1] was found to be 0.25 µg/mL; in test [2], 16 µg/mL; in test [3], 32 µg/mL; in [4], 0.125 µg/mL; in [5], 0.25 µg/mL; in test [6], 0.25 µg/mL. Besides, the MIC in [7] was found to be 0.5 µg/mL; in test [8] it was 0.125 µg/mL; in [9], 0.25 µg/mL; in the test with Streptococcus Group 9960, 0.25 µg/mL; in test [10] it was 0.25 µg/mL; in [11], 0.5 µg/mL. The ED50 is recorded as less than 0.31 mg/kg × 2 with Staphylococcus aureus, greater than 10 mg/kg × 2 in the test on Streptococcus pyogenes and greater than 10 mg/kg × 2 in the test on Streptococcus pneumoniae.
As for N--(L-phenylalanyl)A41030A [Example 17], the MIC in test [1] came out at 0.5 µg/mL; in test [2] it was 16 µg/mL; in [3], 8 µg/mL; in test [4], 0.125 µg/mL; in test [5], 0.125 µg/mL; in test [6], 0.125 µg/mL. In addition, the MIC (in test [7]; in [8]; in [9]; against Streptococcus Group 9960; in [10]; in test [11]) was 0.125 µg/mL in each case. The ED50 with Staphylococcus aureus is on record as 0.08 mg/kg × 2; with Streptococcus pyogenes, greater than 10 mg/kg × 2; with Streptococcus pneumoniae, 8.52 mg/kg × 2.
As to “N--(3,5-dichlorobenzoyl)A35512B [Example 11]”, the MIC in test [1] was 4 µg/mL; in test [2], “-- (Compound not active at less than 128 mcg/ml)”; in test [3], “-- (Compound not active at less than 128 mcg/ml)”; in test [4] it was 8 µg/mL; in test [5], 4 µg/mL; in [6], 8 µg/mL. Moreover, the MIC was 1 µg/mL in [7]; 4 µg/mL in test [8]; 16 µg/mL in [9]; 2 µg/mL against Streptococcus Group 9960; 8 µg/mL in test [10]; 1 µg/mL in [11]. The ED50 in the test with Staphylococcus aureus is given as 11.8 mg/kg × 2.
As for “N--[(1-tetrazole)acetyl]A35512B [Example 10]”, the MIC in test [1] was 8 µg/mL; in test [2], “-- (Compound not active at less than 128 mcg/ml)”; in test [3], “-- (Compound not active at less than 128 mcg/ml)”; in [4] it was 4 µg/mL; in test [5] it was 4 µg/mL; in test [6] it was 8 µg/mL. Besides, the MIC in test [7] was 2 µg/mL; in test [8], 4 µg/mL; in test [9], 16 µg/mL; with Streptococcus Group 9960, 8 µg/mL; in test [10], 4 µg/mL; in test [11], 4 µg/mL. In the test with Staphylococcus aureus, the ED50 is 5.7 mg/kg × 2.
Consider “N--[4-(N,N--dimethylamino)benzoyl]A41030A [Example 18]”, for which the MIC in [1] is 1 µg/mL; in test [2] it was 64 µg/mL; in test [3], “-- (Compound not active at less than 128 mcg/ml)”; in test [4], 0.25 µg/mL; in test [5], 0.5 µg/mL; in test [6] it was 0.5 µg/mL. Besides, the MIC in test [7] amounted to 1 µg/mL; in [8], 0.25 µg/mL; in [9], 0.5 µg/mL; with Streptococcus Group 9960, 2 µg/mL; in test [10], 0.25 µg/mL; in test [11] it was 0.5 µg/mL. In addition, the ED50 in the test on Staphylococcus aureus is 0.46 mg/kg × 2; in the test with Streptococcus pyogenes, greater than 10 mg/kg × 2; in the test on Streptococcus pneumoniae, greater than 10 mg/kg × 2.
